# Laboratory results taken from patent US8765721B2, “Composition comprising phosphatidyl serine and an antigen or allergen and the use thereof” (Vaccine Technology Limited, priority 2004, dated 2014).
# Columns and labels:
# Type in all cases: in vivo, rat
# IgE [1] = experiment: Ovalbumin-specific IgE ELISA of serum of immunised rats; conditions: Day 1; 250 ug with 20 μg Ova s.c. on days 21 and 42; pooled group serum
# IgG2a = experiment: Ovalbumin-specific IgG2a ELISA of serum of immunised rats; conditions: pooled group serum
# Protocol: (§1) Rats were injected with vaccine compositions comprising the ovalbumin antigen with and without di-oleoyl phosphatidyl serine, lyso-oleoyl phosphatidyl serine or stearoyl(X1)-arachidonoyl(X2) phosphatidyl serine and the concentrations of IgE, IgA and IgG are compared.
# (§2) The animals were acclimatised for a period of 5 days prior to dosing. During the acclimatisation period animals were observed twice daily during the working week and once on each day during the weekend to evaluate the health status of the animals. Rats were then allocated to the following dose groups using computer-generated random order numbers.
# (§3) On day 0, 20 μg of ovalbumin (OA) in phosphate buffered saline (PBS) with alhydrogel (AHG) adjuvant in a final volume of 0.5 mL was administered.
# (§4) On days 21 and 42, 20 μg of ovalbumin (OA) in phosphate buffered saline (PBS) with the relevant test compound in a final volume of 0.5 ml was administered.
# (§5) In each case, 0.5 mL of inoculum was injected subcutaneously into the scruff of the neck. […]
# (§6) Serum was prepared by centrifugation of the blood sample at 2,500 rpm for 10 minutes and frozen at −20° C. The samples were then analysed by ELISA to establish the concentration of IgE, IgA and IgG1, IgG2a and IgG2b.
# (§7) The purpose of an ELISA is to determine whether a particular protein is present in a sample and then enables quantification of how much is present. By coating the bottom of wells with ovalbumin (OVA) it is possible to bind anti-OVA specific antibodies. To detect only anti-OVA IgA antibodies anti-rat IgA conjugated to HRP was used as a secondary antibody. Quantification of specific antibodies in the rat sera samples was performed using antibody titrations. The data was reported as endpoint titers. Endpoint titers are defined as the last serum dilution giving an optical density value equal to twice the background optical density for the ELISA plate (buffer).
# IgA [2] = experiment: Ovalbumin-specific IgA ELISA of serum of immunised rats; conditions: pooled group serum
# Protocol: as §1, §2, §3, §4
# (§8) In each case, 0.5 mL of inoculum was injected subcutaneously into the scruff of the neck.
# On Day 0 a pre-inoculation blood sample was taken. A blood sample was also taken from each animal on Days 15, 22, 29, 36, 43, 50, 57 and 64.
# as §6, §7
# IgG2b = experiment: Ovalbumin-specific IgG2b ELISA of serum of immunised rats; conditions: pooled group serum
# Protocol: as §1, §2, §3, §4, §8
# (§9) […] A blood sample was also taken from each animal on Days 15, 22, 29, 36, 43, 50, 57 and 64.
# as §6, §7
# IgE [3] = experiment: Ovalbumin-specific IgE ELISA of serum of immunised rats; conditions: pooled group serum
# Protocol: as §1, §2, §3, §4, §8, §9, §6, §7
# IgG1 = experiment: Ovalbumin-specific IgG1 ELISA of serum of immunised rats; conditions: pooled group serum
# Protocol: as §1, §2, §3, §4, §5, §6
# The purpose of an ELISA is to determine whether a particular protein is present in a sample and then enables quantification of how much is present. By coating the bottom of wells with ovalbumin (OVA) it is possible to bind anti-OVA specific antibodies. […] Quantification of specific antibodies in the rat sera samples was performed using antibody titrations. The data was reported as endpoint titers. Endpoint titers are defined as the last serum dilution giving an optical density value equal to twice the background optical density for the ELISA plate (buffer).
# IgA [4] = experiment: Ovalbumin-specific IgA ELISA of serum of immunised rats; conditions: Day 1; 50 ug with 20 μg Ova s.c. on days 21 and 42; pooled group serum
# [5] = Day 1, 50 ug with 20 μg Ova s.c. on days 21 and 42
# [6] = Day 1, 250 ug with 20 μg Ova s.c. on days 21 and 42
# [7] = Day 15, 50 ug with 20 μg Ova s.c. on days 21 and 42
# [8] = Day 15, 250 ug with 20 μg Ova s.c. on days 21 and 42
# [9] = Day 22, 50 ug with 20 μg Ova s.c. on days 21 and 42
# [10] = Day 22, 250 ug with 20 μg Ova s.c. on days 21 and 42
# [11] = Day 29, 50 ug with 20 μg Ova s.c. on days 21 and 42
# [12] = Day 29, 250 ug with 20 μg Ova s.c. on days 21 and 42
# [13] = Day 36, 50 ug with 20 μg Ova s.c. on days 21 and 42
# [14] = Day 36, 250 ug with 20 μg Ova s.c. on days 21 and 42
# [15] = Day 43, 50 ug with 20 μg Ova s.c. on days 21 and 42
# [16] = Day 43, 250 ug with 20 μg Ova s.c. on days 21 and 42
# [17] = Day 50, 50 ug with 20 μg Ova s.c. on days 21 and 42
# [18] = Day 50, 250 ug with 20 μg Ova s.c. on days 21 and 42
# [19] = Day 57, 50 ug with 20 μg Ova s.c. on days 21 and 42
# [20] = Day 57, 250 ug with 20 μg Ova s.c. on days 21 and 42
# [21] = Day 64, 50 ug with 20 μg Ova s.c. on days 21 and 42
# [22] = Day 64, 250 ug with 20 μg Ova s.c. on days 21 and 42
compound,measurement,setting,value
"CCCCCCCC/C=C\CCCCCCCC(=O)OC[C@@H](O)COP(=O)(O)OC[C@H](N)C(=O)O [VT002, Lyso oleoyl phosphatidyl serine]",IgE endpoint titer,IgE [1],0
same,IgG2a endpoint titer,IgG2a; [5],0
same,IgG2a endpoint titer,IgG2a; [6],0
same,IgG2a endpoint titer,IgG2a; [7],40
same,IgG2a endpoint titer,IgG2a; [8],80
same,IgG2a endpoint titer,IgG2a; [9],1280
same,IgG2a endpoint titer,IgG2a; [10],640
same,IgG2a endpoint titer,IgG2a; [11],2560
same,IgG2a endpoint titer,IgG2a; [12],1280
same,IgG2a endpoint titer,IgG2a; [13],5120
same,IgG2a endpoint titer,IgG2a; [14],2560
same,IgG2a endpoint titer,IgG2a; [15],5120
same,IgG2a endpoint titer,IgG2a; [16],2560
same,IgG2a endpoint titer,IgG2a; [17],20480
same,IgG2a endpoint titer,IgG2a; [18],20480
same,IgG2a endpoint titer,IgG2a; [19],20480
same,IgG2a endpoint titer,IgG2a; [20],20480
same,IgG2a endpoint titer,IgG2a; [21],20480
same,IgG2a endpoint titer,IgG2a; [22],20480
same,IgA endpoint titer,IgA [2]; [6],0
same,IgA endpoint titer,IgA [2]; [7],0
same,IgA endpoint titer,IgA [2]; [8],0
same,IgA endpoint titer,IgA [2]; [9],0
same,IgA endpoint titer,IgA [2]; [10],0
same,IgA endpoint titer,IgA [2]; [11],0
same,IgA endpoint titer,IgA [2]; [12],0
same,IgA endpoint titer,IgA [2]; [13],160
same,IgA endpoint titer,IgA [2]; [14],80
same,IgA endpoint titer,IgA [2]; [15],320
same,IgA endpoint titer,IgA [2]; [16],160
same,IgA endpoint titer,IgA [2]; [17],2560
same,IgA endpoint titer,IgA [2]; [18],1280
same,IgA endpoint titer,IgA [2]; [19],1280
same,IgA endpoint titer,IgA [2]; [20],1280
same,IgA endpoint titer,IgA [2]; [21],2560
same,IgA endpoint titer,IgA [2]; [22],1280
same,IgG2b endpoint titer,IgG2b; [5],0
same,IgG2b endpoint titer,IgG2b; [6],0
same,IgG2b endpoint titer,IgG2b; [7],0
same,IgG2b endpoint titer,IgG2b; [8],40
same,IgG2b endpoint titer,IgG2b; [9],0
same,IgG2b endpoint titer,IgG2b; [10],80
same,IgG2b endpoint titer,IgG2b; [11],160
same,IgG2b endpoint titer,IgG2b; [12],40
same,IgG2b endpoint titer,IgG2b; [13],320
same,IgG2b endpoint titer,IgG2b; [14],320
same,IgG2b endpoint titer,IgG2b; [15],640
same,IgG2b endpoint titer,IgG2b; [16],640
same,IgG2b endpoint titer,IgG2b; [17],640
same,IgG2b endpoint titer,IgG2b; [18],5120
same,IgG2b endpoint titer,IgG2b; [19],2560
same,IgG2b endpoint titer,IgG2b; [20],5120
same,IgG2b endpoint titer,IgG2b; [21],1280
same,IgG2b endpoint titer,IgG2b; [22],2560
same,IgE endpoint titer,IgE [3]; [5],0
same,IgE endpoint titer,IgE [3]; [7],0
same,IgE endpoint titer,IgE [3]; [8],0
same,IgE endpoint titer,IgE [3]; [9],0
same,IgE endpoint titer,IgE [3]; [10],0
same,IgE endpoint titer,IgE [3]; [11],80
same,IgE endpoint titer,IgE [3]; [12],0
same,IgE endpoint titer,IgE [3]; [13],40
same,IgE endpoint titer,IgE [3]; [14],20
same,IgE endpoint titer,IgE [3]; [15],80
same,IgE endpoint titer,IgE [3]; [16],40
same,IgE endpoint titer,IgE [3]; [17],1280
same,IgE endpoint titer,IgE [3]; [18],640
same,IgE endpoint titer,IgE [3]; [19],320
same,IgE endpoint titer,IgE [3]; [20],160
same,IgE endpoint titer,IgE [3]; [21],160
same,IgE endpoint titer,IgE [3]; [22],160
same,IgG1 endpoint titer,IgG1; [5],0
same,IgG1 endpoint titer,IgG1; [6],0
same,IgG1 endpoint titer,IgG1; [7],320
same,IgG1 endpoint titer,IgG1; [8],640
same,IgG1 endpoint titer,IgG1; [9],2560
same,IgG1 endpoint titer,IgG1; [10],2560
same,IgG1 endpoint titer,IgG1; [11],10240
same,IgG1 endpoint titer,IgG1; [12],5120
same,IgG1 endpoint titer,IgG1; [13],20480
same,IgG1 endpoint titer,IgG1; [14],20480
same,IgG1 endpoint titer,IgG1; [15],20480
same,IgG1 endpoint titer,IgG1; [16],10240
same,IgG1 endpoint titer,IgG1; [17],40960
same,IgG1 endpoint titer,IgG1; [18],20480
same,IgG1 endpoint titer,IgG1; [19],40960
same,IgG1 endpoint titer,IgG1; [20],40960
same,IgG1 endpoint titer,IgG1; [21],40960
same,IgG1 endpoint titer,IgG1; [22],40960
same,IgA endpoint titer,IgA [4],0
